Consider one compound from patent US20190352276A1, “INHIBITORS OF BRUTON'S TYROSINE KINASE” (Joint Stock Company "Biocad", priority 2016, published 2019).

For this data set the following is noted: human, microsomes.

Experimental: 2) Metabolic Stability in Human Liver Microsomes
The rate of enzymatic decomposition of a compound was detected by incubating the reaction mixture in a dry block heater at 37° C.; the reaction mixture contained 0.5 mg/mL of pooled human liver microsomes (XenoTech, USA, cat# H6010), 10 mM of a drug candidate, 2 mM β-nicotinamide adenine dinucleotide (Carbosynth, UK, cat#NN10871) and 4 mM of magnesium chloride in 0.1M sodium phosphate buffer pH=7.4. The reaction was terminated by adding 100 μL of acetonitrile for each 100 μL of the reaction mixture. After the reaction was terminated, the samples were centrifuged for 10 min at 10000 rpm. The supernatant was chromatographed using Agilent 1200 chromatograph (Agilent, USA). We used gradient elution (1 mL/min flow rate). We plotted a calibration curve of the logarithm of the peak area vs. time. The gradient of the line corresponded to the elimination rate constant k. Based on the constant, determined using the curve, we calculated the drug's half-life (T1/2) and metabolism rate (CLint).

Consider `C=CC(=O)N1CCC[C@@H](n2nc(-c3ccc(Oc4ccncc4)cc3)c3c(N)nccc32)C1` [BCD-BTK -241, (R)-1-(1-acryloylpiperidin-3-yl)-4-amine-3-(4-(pyridin-4-yloxy)phenyl)-1H-pyrazolo[4,3-c]pyridine], for which the “Clint (microsome metabolic stability)” value turned out to be 27.4 µL/min/mg.
